Measured values published in patent publication US11123350B2, “Metal delivery agents and therapeutic uses of the same” (THE UNIVERSITY OF MELBOURNE, priority 2006, dated 2021).

Key:
[1] = system: APP-transfected Chinese Hamster Ovary (APP-CHO) cells; experiment: Cellular copper uptake of Cu-BTSC complexes (ICP-MS); format: cell-based
Protocol: APP-transfected Chinese Hamster Ovary (APP-CHO) cells were treated with a range of [Cu(BTSC] complexes with dialkyl backbones at 1-50 μM for 6 hr in serum-free culture medium. Cells were washed twice with phosphate buffered saline (PBS) and cells scraped into fresh PBS and pelleted at 10,000 rpm in a microfuge for 5 min. Supernatant was discarded and cell pellets frozen at −70° C. until metal levels were determined by inductively-coupled plasma mass spectrometry (ICP-MS) at the Department of Pathology, University of Melbourne.

[2] = system: M17 human neuroblastoma cells; experiment: Ionophore assay (metal uptake, ICPMS); format: cell-based; conditions: 5 hours at 37° C., reported versus internal control Clioquinol
Protocol: M17 human neuroblastoma cells were plated out on 6 well plates and left overnight. Enough cells were added to give approximately 70% confluent the following day of the experiment.
The test cells were incubated in 1 ml of media and compound mix for 5 hours at 37° C. At the end of the incubation the media was removed with a vacuum aspirator and 1 ml of PBS added to dislodge the cells. Cells are then put into Eppendorf tubes and pelleted. The PBS is removed and the remaining cell pellets are frozen at −20° C.
Cell pellets of similar levels are placed in 1.5 ml microfuge tubes. To each tube was added 50 μl of concentrated Nitric Acid (Aristar, BDH) to each cell pellet and allowed each cell pellet was allowed to digest overnight. The samples were heated for 20 min at 90° C. to complete the digestion. The volume of each sample was reduced to ˜45 ? l after digestion. To each was added 1 ml of the 1% Nitric Acid diluent. Measurements were made using a Varian UltraMass ICPMS instrument under operating conditions suitable for routine multi-element analysis.
The instrument was calibrated using Blank, 10, 50 and 100 ppb of a certified multi-element ICPMS standard solution (ICP-MS-CAI2-1, Accustandard) for Fe, Cu and Zn in 1% nitric acid. Used an certified internal standard solution containing 100 ppb Yttrium (Y 89) as an internal control (ICP-MS-IS-MIX1-1, Accustandard).

WT cells = experiment: Dopamine induced cell death, WT cells (MTT); format: cell-based
Protocol: A series of trials were conducted in which the effect of CuGTSM on inhibiting Dopamine induced cell death were conducted on WT cells and A30P cells. The protocol used was as follows.
The cell line was maintained in OPTI-MEM (Gibco) supplemented with 10% fetal calf serum (FCS), Non-essential amino acids, sodium pyruvate and Penn/Strep. Cells were incubated at 37° C. in a humidified atmosphere of 95% air and 5% CO2. Cell assays were plated out into 48 well culture plates at 4×10^4 cells per well. Cells were left to settle overnight then incubated with drugs for 24h prior to being subjected to MTT assays for cell viability.
The viability of cells was assessed using an MTT assay. […] The mixture of media and reagents e.g. Dopamine was aspirated off and media containing 5 mg/mI MTT is added and the plate incubated for 1 h at 37° C. The remaining media/MTT solution is aspirated off and the cells were then solubilized with DMSO. The 48 well plate is then read at 595 nm on a plate reader.
In essence a series of WT cells and A30P cells were treated with a control, Dopamine, CuGTSM, Cu ATSM, and combinations of Dopamine and CuGTSM, and dopamine and CuATSM at various concentrations to determine the ability of the compound to act as an anti-oxidant and […] cell death. The results are shown in table 15 (WT cells) and Table 16 (A30P cells)

[3] = system: mice with 6-OHDA lesion of the SNpc; experiment: 6-OHDA lesion Parkinson's disease model, amphetamine-induced rotation; format: in vivo; conditions: oral gavage 10 or 30 mg/kg daily, 7 days pre-lesion and 14 days post lesion
EAE mouse model = experiment: Experimental autoimmune encephalomyelitis (EAE) mouse model of MS; format: in vivo; conditions: daily oral treatment
From the text: (§1) I. Cu(ATSM) is protective in mouse models of MS. The two most widely used mouse models of MS are the experimental autoimmune encephalomyelitis (EAE) and cuprizone models. Some features of progressive MS are evident in each model. Administration of Cu(ATSM) to these mice (daily oral treatment) established that: (a) Cu(ATSM) improved body weight changes and neurological symptoms evident in the EAE mouse model; (b) Cu(ATSM) improved body weight changes evident in the cuprizone mouse model; and (c) treating with Cu(ATSM) improves myelination in the corpus callosum of the cuprizone mouse model.

cuprizone mouse model = experiment: Cuprizone mouse model of MS; format: in vivo; conditions: daily oral treatment
From the text: as §1

[4] = cited from earlier work
G93A-SOD1 mice = experiment: G93A SOD1 ALS mice: survival and onset of paralysis

## CN=C([S-])N/N=C(C)/C(C)=N/NC([S-])=NC.[64Cu+2] [Complex A2, copper(II)diacetylbis(N(4)-methylthiosemicarbazone)]
[1]; 1-50 μM, 6 hr
  fold increase in cellular copper levels compared to untreated control cells: 177±9 fold
[1]; treated, control 4.5
  cellular Copper level: 796 ng/mg protein
[2]
  Ionophore (% uptake of metal at 10 μm): 157.1%
WT cells; Dopamine 500 μm + complex 0.01 μM
  % recovery: 64.28%
WT cells; Dopamine 500 μm + complex 0.1 μM
  % recovery: 103.13%
[3]
  amphetamine-induced rotation versus control group: performed better
EAE mouse model
  body weight changes in the EAE mouse model: improved
  neurological symptoms in the EAE mouse model: improved
Cuprizone mouse model
  body weight changes in the cuprizone mouse model: improved
  myelination in the corpus callosum: improves
[4]; Cu(II) to Cu(I)
  reduction potential E1/2: −0.59 V
[4]; difference to [Cu(GTSM)]
  Cu(II)/Cu(I) reduction potential, harder to reduce than [Cu(GTSM)]: ~160 mV
G93A-SOD1 mice; 30 mg/kg gavage once daily (5 days/week)
  onset of paralysis in ALS mice: significantly delays
G93A-SOD1 mice; G93A-SOD1 mice, present results
  Increased Life Span: 31 to 33 days
